The source of these data is patent US8513260B2, “Pyrazinylpyrazoles” (Bayer CropScience AG, priority 2009, dated 2013).

Format in all cases: in vivo
The test system of experiment [1] is larvae of the mustard beetle (Phaedon cochleariae). Kind of experiment: Phaedon test (PHAECO spray treatment). Conditions: 500 g/ha, Chinese cabbage discs, after 7 days. How it is done:
Phaedon Test ([…] Spray Treatment) Solvent: 78.0 parts by weight of acetone • • 1.5 parts by weight of dimethylformamide Emulsifier: 0.5 part by weight of alkylaryl polyglycol ether To prepare an appropriate active ingredient preparation, 1 part by weight of active ingredient is mixed with the stated amounts of solvent and emulsifier, and the concentrate is diluted with emulsifier-containing water to the desired concentration. Discs of Chinese cabbage (Brassica pekinensis) are sprayed with an active ingredient preparation of the desired concentration and, after drying, populated with larvae of the mustard beetle (Phaedon cochleariae). After 7 days, the efficacy in % is determined. 100% means that all beetle larvae have been killed; 0% means that none of the beetle larvae have been killed.

For experiment [2], the system named is red spider mite (Tetranychus urticae). The experiment can be described thus: Tetranychus test, OP-resistant (TETRUR spray treatment). Conditions: bean leaf discs, after 6 days. How it is done: Tetranychus Test, OP-Resistant (TETRUR Spray Treatment)
Solvent: 78.0 parts by weight of acetone • • 1.5 parts by weight of dimethylformamide
Emulsifier: 0.5 part by weight of alkylaryl polyglycol ether
To prepare an appropriate active ingredient preparation, 1 part by weight of active ingredient is mixed with the stated amounts of solvent and emulsifier, and the concentrate is diluted with emulsifier-containing water to the desired concentration. Discs of bean leaves (Phaseolus vulgaris) infested by all stages of the red spider mite (Tetranychus urticae) are sprayed with an active ingredient preparation of the desired concentration. After 6 days, the efficacy in % is determined. 100% means that all spider mites have been killed; 0% means that none of the spider mites have been killed.

Experiment [3] concerns caterpillars of the armyworm (Spodoptera frugiperda). The experiment can be described thus: Spodoptera frugiperda test (SPODFR spray treatment). To be noted: 500 g/ha, maize leaf discs, after 7 days. How it is done:
Spodoptera frugiperda Test (SPODFR Spray Treatment) Solvent: 78.0 parts by weight of acetone • • 1.5 parts by weight of dimethylformamide Emulsifier: 0.5 part by weight of alkylaryl polyglycol ether To prepare an appropriate active ingredient preparation, 1 part by weight of active ingredient is mixed with the stated amounts of solvent and emulsifier, and the concentrate is diluted with emulsifier-containing water to the desired concentration. Discs of maize leaves (Zea mays) are sprayed with an active ingredient preparation of the desired concentration and, after drying, populated with caterpillars of the armyworm (Spodoptera frugiperda). After 7 days, the efficacy in % is determined. 100% means that all caterpillars have been killed; 0% means that none of the caterpillars have been killed.

With `CC(C)Oc1nccnc1-n1nc(C(F)(F)F)c(-c2cc(Cl)cc(C(F)(F)F)c2)c1N` [Ex. 13], the efficacy in experiment [1] is on record as 83%.
As for `CCOc1cc(-c2c(C(F)(F)F)nn(-c3nccnc3OC)c2N)cc(Cl)c1OCC(F)(F)F` [Ex. 144], the efficacy in experiment [2] (500 g/ha), in experiment [1] and in experiment [3] was 100% each time.
For `Nc1c(-c2cc(Cl)cc(C(F)(F)F)c2)c(C(F)(F)F)nn1-c1nccnc1-n1ccnc1` [Ex. 44], the efficacy in experiment [1] and in experiment [3] was 100% throughout.
As for `COc1nccnc1-n1nc(C(F)(F)C(F)F)c(-c2cc(Cl)c3c(c2)CCO3)c1N` [Ex. 66], the efficacy in experiment [2] (500 g/ha) was found to be 90%; in experiment [1], 100%; in experiment [3], 100%.
In experiment [2] (500 g/ha), `C=C(C)CNc1c(-c2cc(Cl)cc(C(F)(F)F)c2)c(C(F)(F)F)nn1-c1nccnc1OC` [Ex. 96] returned an efficacy of 100%.
Turning to `COc1nccnc1-n1nc(C(F)(F)F)c(-c2cc(F)c(Cl)cc2Cl)c1N` [Ex. 166], the efficacy in experiment [2] (500 g/ha) was found to be 90%; in experiment [1], 100%.
Turning to `COc1nccnc1-n1nc(C(F)(F)F)c(-c2cc(Cl)c(N(C)C)c(C(F)(F)F)c2)c1N` [Ex. 123], the efficacy in experiment [2] (500 g/ha) was 80%; in experiment [1], 100%; in experiment [3], 100%.
`COc1nccnc1-n1nc(C(F)(F)F)c(-c2ccc3c(c2)CCC(C)(C)O3)c1N` [Ex. 145] displayed an efficacy in experiment [1] of 100%.
Take `COc1nccnc1-n1nc(C(F)(F)F)c(-c2cc(Cl)c(Cl)c(C(F)(F)F)c2)c1N` [Ex. 86]: the efficacy in experiment [1] and in experiment [3] was 100% each time.
In the case of `CCOc1cc(-c2c(C(F)(F)F)nn(-c3nccnc3OC)c2N)ccc1OCC(F)(F)F` [Ex. 127], the figures for the efficacy in experiment [2] (500 g/ha) and in experiment [1] were 90% and 100%, respectively.
Consider `COc1cc(-c2c(C(F)(F)F)nn(-c3nccnc3OC)c2N)cc(Cl)c1OCC(F)(F)F` [Ex. 134], for which the efficacy in experiment [1] and in experiment [3] was 100% throughout.
As for `COc1nccnc1-n1nc(C(F)(F)C(F)F)c(-c2cc(Cl)c(Cl)c(Cl)c2)c1N` [Ex. 116], the efficacy came out at 90% in experiment [2] (500 g/ha), 100% in experiment [1] and 100% in experiment [3].
Take `COc1nccnc1-n1nc(C(F)(F)F)c(-c2cc3c(c(C(F)(F)F)c2)OCCO3)c1N` [Ex. 173]: the efficacy in experiment [2] (500 g/ha) is listed as 90%; in experiment [1] it was 100%; in experiment [3], 100%.
On to `Cc1nccnc1-n1nc(C(F)(F)F)c(-c2cc(Cl)cc(C(F)(F)F)c2)c1N` [Ex. 23], for which the efficacy in experiment [2] (500 g/ha) and in experiment [1] was 100% each time.
For the compound `COc1nccnc1-n1nc(C(F)(F)F)c(-c2cc(Cl)c(N(C)C)c(Cl)c2)c1N` [Ex. 121], the efficacy in experiment [2] (100 g/ha) is recorded as 80%; in experiment [1] it was 100%; in experiment [3], 100%.
On to `N#Cc1nccnc1-n1nc(C(F)(F)F)c(-c2cc(Cl)cc(C(F)(F)F)c2)c1N` [Ex. 27], for which, in experiment [1], the efficacy is 100%.
Take `Nc1c(-c2cc(Cl)cc(C(F)(F)F)c2)c(C(F)(F)F)nn1-c1nccnc1C(F)(F)F` [Ex. 130]: the efficacy in experiment [1] and in experiment [3] was 100% throughout.
`CCOc1nccnc1-n1nc(C(F)(F)F)c(-c2cc(Cl)cc(C(F)(F)F)c2)c1NCc1ccccc1` [Ex. 35] showed an efficacy in experiment [2] (500 g/ha) of 90%.
For the compound `CCOc1nccnc1-n1nc(C(F)(F)F)c(-c2cc(Cl)cc(C(F)(F)F)c2)c1N(Cc1ccc(OC)cc1)Cc1ccc(OC)cc1` [Ex. 43], the efficacy in experiment [1] and in experiment [3] was 100% in each case.
As for `COc1cc(-c2c(C(F)(F)F)nn(-c3nccnc3OC)c2N)ccc1OCC(F)(F)F` [Ex. 125], the results for the efficacy in experiment [2] (500 g/ha) and in experiment [1] were 90% and 100%, respectively.
Take `COc1nccnc1-n1nc(C(F)(F)F)c(-c2ccc(N(C)C)c(Cl)c2)c1N` [Ex. 122]: the efficacy in experiment [1] and in experiment [3] was 100% throughout.
